Data from ChEMBL document CHEMBL1142607, “Haterumadysins A-D, sesquiterpenes from the Okinawan marine sponge Dysidea chlorea” (2006).
Calls of active or inactive are those of the source. The rule behind the calls is not given here.

Columns and labels:
Assay type in all cases: functional
[1] = system: Echinoidea; experiment: (§1) Inhibition of cell division in fertilized sea urchin egg at 1 ppm
[2] = system: Echinoidea; experiment: Inhibition of cell division in fertilized sea urchin egg at 3 ppm
[3] = as §1; conditions: Echinoidea

Row | Structure (SMILES) | Activity [1] | also measured
1 | CC(=O)O[C@@H]1OC=C[C@]12CC1=C[C@](C)(OO)CC[C@H]1C2(C)C | Active | 
2 | CC1=C[C@@H]2C[C@]3(C=COC3=O)C(C)(C)[C@@H]2CC1 |  | Activity [2]: inactive
3 | CC(=O)O[C@@H]1OC=C[C@]12C[C@H]1C=C(C)CC[C@H]1C2(C)C [SPIRODYSIN] |  | inhibition at 1 ppm [3]: 90%
4 | CC(=O)O[C@@H]1OC=C[C@]12Cc1cc(C)ccc1C2(C)C | Active | 
5 | CC(=O)O[C@@H]1OC=C[C@]12CC1=C[C@@](C)(OO)CC[C@H]1C2(C)C | Active | 
6 | CC(=O)O[C@@H]1OC=C[C@]12C=C1C=C(C)CC[C@H]1C2(C)C | Active | 
